Patent publication US8404725B2, “Phenylamino isonicotinamide compounds” (Merck Patent GmbH, priority 2008, dated 2013)

Key:
[1] = test system: human pancreatic MiaPaCa-2 cells; experiment: Tumor Cell Proliferation Assay (ATP Lite), MiaPaCa-2; format: cell-based; conditions: MIA PaCa-2, 96 h, 4 days
Method: (§1) Murine colon C26, human melanoma A375 and human pancreatic MiaPaCa-2 cells were plated in 96 well Corning white plates (1500 cells/well for C26, and 2000 cells/well for A375, and MiaPaCa-2) and cultured overnight at 37° C. in 5% CO2. Inhibitors were serially diluted in 100 DMSO and subsequently added to cells to reach a final concentration of 0.25% DMSO. The cells were incubated for 4 days in the presence of test compounds in cell growth media (DMEM with 10% fetal bovine serum, 2 mM glutamine for C26, and MiaPaCa-2, and RPMI with 10% fetal bovine serum, 2 mM glutamine for A375). Cell proliferation was quantitated using the ATP lite cell proliferation kit (Packard). Columns 2-5 show the concentration of compounds required to induce 50% cell death (IC50 in μM) of […].

[2] = test system: human melanoma A375 cells; experiment: Tumor Cell Proliferation Assay (ATP Lite), A375; format: cell-based; conditions: A-375, 96 h, 4 days
Method: as §1

Murine colon C26 cells = experiment: Tumor Cell Proliferation Assay (ATP Lite), C26; format: cell-based; conditions: Mus musculus, 96 h, 4 days
Method: as §1

human MEK1 = human MEK1 (Homo sapiens, UniProt Q02750); experiment: MEK-1 Enzyme Assay (LANCE-HTRF); format: biochemical; conditions: 100 nM MEK1, 15 μM ATP, 300 nM ERK2, two hours
Method: The activity of the compounds of the present invention may be determined by the following procedure: Inhibition of human MEK1 kinase activity was monitored with a homogenous, fluorescence based assay. The assay uses time resolved fluorescence resonance energy transfer to probe for phosphorylation of […] by MEK1. The assay is carried out in low volume 96 well microtiterplates. In a total volume of 15 μl, compounds are incubated with 100 nM MEK1, 15 μM ATP, 300 nM ERK2 employing a buffer containing 20 mM TRIS/HCl, 10 mM MgCl2, 100 μM NaVO4, 1 mM DTT, and 0.005% Tween 20 (pH 7.4). After two hours, 5 nM Europium-anti-PY20 (Perkin Elmer) and 50 nM Anti-GST-Allophycocyanin (CisBio) in buffer containing 50 mM EDTA and 0.05% BSA are added and the reaction incubated for one hour in the dark. Time-resolved fluorescence is measured using a LJL-Analyst (Molecular Devices) with an excitation wavelength of 340 nm and an emission wavelength of 665 nm. The final concentration of DMSO is 2%.

Colo-205 xenograft = experiment: In vivo efficacy, Colo-205 mouse xenograft model; conditions: male nude mice
Method: (§2) Male nude (nu/nu) mice were injected subcutaneously above the right foreleg with certain number of cells of human tumor cell lines such as Colo-205, A375 or MiaPaCa2. Tumors were measured with calipers one week after cells were implanted. Tumor length (l) and width (w) were measured and tumor volume was calculated with the equation l*w^2/2. […] Tumor volume and body weight were measured for each animal on Days 0, 4, 6, 8, 10, 12 and 14. Tumor volume and percent body weight were analyzed via Two-Way Repeated Measures Analysis of Variance (RM-ANOVA) followed by Fisher's post-hoc multiple pair-wise comparisons of treatment group means.

MiaPaCa2 xenograft = experiment: In vivo efficacy, MiaPaCa2 mouse xenograft model; conditions: male nude mice
Method: as §2

Sequence of human MEK1 (Q02750 whole entry): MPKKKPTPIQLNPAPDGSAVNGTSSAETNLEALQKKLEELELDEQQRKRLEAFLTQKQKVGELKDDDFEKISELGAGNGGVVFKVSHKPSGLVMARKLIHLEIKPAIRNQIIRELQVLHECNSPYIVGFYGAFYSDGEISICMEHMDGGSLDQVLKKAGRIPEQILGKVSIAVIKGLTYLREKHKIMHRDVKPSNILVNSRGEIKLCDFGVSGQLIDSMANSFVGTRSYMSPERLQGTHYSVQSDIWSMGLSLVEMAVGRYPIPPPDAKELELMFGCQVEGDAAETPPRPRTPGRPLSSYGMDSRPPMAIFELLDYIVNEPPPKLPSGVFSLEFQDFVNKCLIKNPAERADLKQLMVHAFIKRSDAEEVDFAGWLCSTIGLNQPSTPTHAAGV

Row | SMILES | IC50 [1] [nM] | IC50 [2] [nM] | IC50 (Murine colon C26 cells) [nM] | IC50 (human MEK1) [nM] | tumor growth inhibition (Colo-205 xenograft; daily 1.5 mg/kg, oral route) [%] | TGI (MiaPaCa2 xenograft; 33 μg/kg/day) [%] | TGI (MiaPaCa2 xenograft; 50 μg/kg/day) [%] | tumor growth inhibition (TGI) (Colo-205 xenograft; 50 μg/kg*day, oral route) [%] | tumor growth inhibition (Colo-205 xenograft; 150 μg/kg/day) [%]
1 | O=C(N[C@@H]1CCC[C@@H](O)[C@H]1O)c1cc(Cl)ncc1Nc1ccc(I)cc1F (racemic) [(1), 2-Chloro-N-((1RS,2SR,3RS)-2,3-dihydroxy-cyclohexyl)-5-(2-fluoro-4-iodo-phenylamino)-sonicotinamide] | 2 | 2 | 2 | 34.5 |  |  |  |  | 
2 | O=C(N[C@@H]1CCC[C@@H](O)[C@H]1O)c1c(F)cncc1Nc1ccc(I)cc1F (racemic) [(2)] | 4.5 | 1 | 5 | 74 |  |  |  |  | 
3 | O=C(N[C@H]1CCC[C@H](O)[C@@H]1O)c1ccncc1Nc1ccc(I)cc1F (racemic) [(3), N-[(1SR,2RS,3SR)-2,3-dihydroxycyclohexyl]-3-[(2-fluoro-4-iodophenyl)amino]isonicotinamide] | 7.3 | 1.4 | 16 | 94.8 |  |  |  |  | 
4 | N[C@@H]1CCC[C@@H](OC(=O)c2c(F)cncc2Nc2ccc(I)cc2F)[C@H]1O (racemic) [(4), 3-Fluoro-5-(2-fluoro-4-iodo-phenylamino)-isonicotinic acid (1RS,2SR,3RS)-3-amino-2-hydroxy-cyclohexyl ester] | 49 | 85.5 | 20 | 160 |  |  |  |  | 
5 | O=C(N[C@@H]1CCC[C@@H](O)[C@H]1O)c1ccncc1Nc1ccc(Br)cc1F (racemic) [(5), 3-(4-Bromo-2-fluoro-phenylamino)-N-((1RS,2SR,3RS)-2,3-dihydroxy-cyclohexyl)-isonicotinamide] | 42.5 | 7.5 | 73 | 98 |  |  |  |  | 
6 | O=C(N[C@@H]1CCC[C@@H](O)[C@H]1O)c1ccncc1Nc1ccc(Br)cc1Cl (racemic) [(6), 3-(4-Bromo-2-chloro-phenylamino)-N-((1RS,2SR,3RS)-2,3-dihydroxy-cyclohexyl)-isonicotinamide] | 75.3 | 16.8 | 113 | 38 |  |  |  |  | 
7 | O=C(N[C@H]1CCC[C@H](O)[C@@H]1O)c1ccncc1Nc1ccc(I)cc1F [(7), N-((1S,2R,3S)-2,3-dihydroxycyclohexyl)-3-(2-fluoro-4-iodophenylamino)isonicotinamide] | 2120 | 274 | 5400 | 2670 |  |  |  |  | 
8 | O=C(N[C@@H]1CCC[C@@H](O)[C@H]1O)c1ccncc1Nc1ccc(Br)cc1F [(9), 3-(4-bromo-2-fluorophenylamino)-N-((1R,2S,3R)-2,3-dihydroxycyclohexyl)isonicotinamide] |  |  |  |  | 98.5 |  |  |  | 
9 | O=C(N[C@@H]1CCC[C@@H](O)[C@H]1O)c1ccncc1Nc1ccccc1F [(10), N-((1R,2S,3R)-2,3-Dihydroxy-cyclohexyl)-3-(2-fluoro-phenylamino)-isonicotinamide] | 74 | 21.5 | 150 | 189 |  |  |  |  | 
10 | O=C(N[C@@H]1CCC[C@@H](O)[C@H]1O)c1ccncc1Nc1ccc(I)cc1F [Compound (8), N-[(1R,2S,3R)-2,3-dihydroxycyclohexyl]-3-[(2-fluoro-4-iodophenyl)amino]isonicotinamide] | 2.7 | 1.6 | 4.7 | 133 |  | 100.97 | 110.74 | 100.69 | 115.33
